Reference: US12012403B2, “Aryl sulfonyl compounds as CCR6 inhibitors” (CHEMOCENTRYX, INC., priority 2021, dated 2024)

Molecular target: T1, human CCR6 (Homo sapiens, UniProt P51684)
T1 construct: expressed in transfected cells; host or cells: Ba/F3 cells (murine pro-B line), hCCR6-transfected, CMV promoter, sodium butyrate induction
T1 sequence (P51684 1-374): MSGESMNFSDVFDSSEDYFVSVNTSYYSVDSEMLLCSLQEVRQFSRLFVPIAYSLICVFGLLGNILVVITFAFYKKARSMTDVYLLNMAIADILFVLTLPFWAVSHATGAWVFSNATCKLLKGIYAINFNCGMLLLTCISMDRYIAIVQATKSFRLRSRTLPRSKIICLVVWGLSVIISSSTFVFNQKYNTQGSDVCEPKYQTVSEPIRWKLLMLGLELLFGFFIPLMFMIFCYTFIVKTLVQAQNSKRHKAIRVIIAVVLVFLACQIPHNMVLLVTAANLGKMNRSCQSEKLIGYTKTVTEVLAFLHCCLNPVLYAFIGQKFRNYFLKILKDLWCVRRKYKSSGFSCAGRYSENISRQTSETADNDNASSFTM
Assay: Migration (chemotaxis) assay, hCCR6-transfected Ba/F3 cells toward CCL20
Type: cell-based
Settings: hCCR6-transfected Ba/F3 cells in human serum; recombinant human CCL20 10 nM; 37° C. 45 minutes; read-out: Potency (IC50 value in the migration assay)
Outline: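 Ba/F3 cells stably transfected with human CCR6 (CMV promoter), pre-induced 24 hr with sodium butyrate, suspended at 4 million/ml in human serum with test compound serially diluted from 10 μM final. Migration through 5-μm polycarbonate membrane toward 10 nM CCL20 (EC50) for 45 min at 37 °C; migrated cells quantified by CyQUANT fluorescence.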

| IC50 [nM] | Structure (SMILES) |
| --- | --- |
| 5 to 100 | O=C1N(CCO)c2ncc(-c3ccc(S(=O)(=O)N4CCC(Nc5ccc(C(F)(F)F)cn5)CC4)cc3)cc2C12CCOCC2 [Example 1.020] |
| 100 to 10000 | O=S(=O)(c1ccc(-c2ccc3c(c2)CNC3)cc1)N1CCC(Nc2ccc(C(F)(F)F)cn2)CC1 [Example 1.058] |
| 5 to 100 | NC(=O)C(=O)N1CCN(c2ccc(S(=O)(=O)N3CCC(Nc4ccc(C(F)(F)F)cn4)CC3)cc2)CC1 [Example 1.173] |
| < 5 | O=S(=O)(c1ccc(-c2cnc3[nH]ccc3c2F)cc1)N1CCC(Nc2ccc(C(F)(F)F)cn2)CC1 [Example 1.030] |
| 5 to 100 | CC(=O)NC1CCN(c2ccc(S(=O)(=O)N3CCC(Nc4ccc(C(F)(F)F)cn4)CC3)cc2)CC1 [Example 1.210] |
| 5 to 100 | O=S(=O)(c1ccc(-c2ccc3c(c2)C2(CCOCC2)CN3)cc1)N1CCC(Nc2ccc(C(F)(F)F)cn2)CC1 [Example 1.034] |
| < 5 | O=c1[nH]c2ccc(-c3ccc(S(=O)(=O)N4CCC(Nc5ccc(C(F)(F)F)cn5)CC4)cc3)cc2o1 [Example 1.097] |
| 5 to 100 | O=S(=O)(c1ccc(N2CCC(CO)CC2)cc1)N1CCC(Nc2ccc(C(F)(F)F)cn2)CC1 [Example 1.188] |
| 100 to 10000 | O=C1CO[C@@H]2CCN(c3ccc(S(=O)(=O)N4CCC(Nc5ccc(C(F)(F)F)cn5)CC4)cc3)C[C@@H]2N1 (racemic) [Example 1.170] |
| 5 to 100 | N=[S@](=O)(c1ccc(-c2ccc3oc(N)nc3c2)cc1)N1CCC(Nc2ccc(C(F)(F)F)cn2)CC1 [Example 1.116] |
| < 5 | Nc1nc2ccc(-c3ccc(S(=O)(=O)N4CCC(Nc5ccc(C(F)(F)F)cn5)CC4)cc3)cc2o1 [Example 1.086] |
| < 5 | CC(=O)N1Cc2ccc(-c3ccc(S(=O)(=O)N4CCC(Nc5ccc(C(F)(F)F)cn5)CC4)cc3)cc2C1 [Example 1.053] |
| 5 to 100 | O=S(=O)(c1ccc(N2CCC(c3ccn[nH]3)CC2)cc1)N1CCC(Nc2ccc(C(F)(F)F)cn2)CC1 [Example 1.222] |
| 5 to 100 | Cc1nc2c(s1)CN(c1ccc(S(=O)(=O)N3CCC(Nc4ccc(C(F)(F)F)cn4)CC3)cc1)CC2 [Example 1.221] |
| 100 to 10000 | CC(C)(C)OC(=O)N[C@@H]1CCN(c2ccc(S(=O)(=O)N3CCC(Nc4ccc(C(F)(F)F)cn4)CC3)cc2)C1 [Example 1.212] |
| < 5 | NC(=O)c1cc(-c2ccc(S(=O)(=O)N3CCC(Nc4ccc(C(F)(F)F)cn4)CC3)cc2)cc2c1NC(=O)C2 [Example 1.005] |
| < 5 | O=C1NC2(CCN(c3ccc(S(=O)(=O)N4CCC(Nc5ccc(C(F)(F)F)cn5)CC4)cc3)CC2)CO1 [Example 1.148] |
| 100 to 10000 | N#CC1CCN(c2ccc(S(=O)(=O)N3CCC(Nc4ccc(C(F)(F)F)cn4)CC3)cc2)CC1 [Example 1.171] |
| 5 to 100 | CN(C)c1n[nH]c2ccc(-c3ccc(S(=O)(=O)N4CCC(Nc5ccc(C(F)(F)F)cn5)CC4)cc3)cc12 [Example 1.069] |
| 5 to 100 | CC1(C)Oc2cc(-c3ccc(S(=O)(=O)N4CCC(Nc5ccc(C(F)(F)F)cn5)CC4)cc3)ccc2NC1=O [Example 1.019] |
| 5 to 100 | CC(C)(C)OC(=O)N1CC=C(c2ccc(S(=O)(=O)N3CCC(Nc4ccc(C(F)(F)F)cn4)CC3)cc2)CC1 [Example 1.234] |

| IC50 [nM] | Structure (SMILES) |
| --- | --- |
| 5 to 100 | O=C1Cc2ccc(-c3ccc(S(=O)(=O)N4CCC(Nc5ccc(C(F)(F)F)cn5)CC4)cc3)cc2N1 [Example 1.084] |
| 100 to 10000 | CC(=O)NCC(=O)N1CCN(c2ccc(S(=O)(=O)N3CCC(Nc4ccc(C(F)(F)F)cn4)CC3)cc2)CC1 [Example 1.164] |
| < 5 | N#Cc1n[nH]c2ccc(-c3ccc(S(=O)(=O)[C@H]4CC[C@H](Nc5ccc(C(F)(F)F)cn5)CC4)cc3)cc12 [Example 1.072] |
| 5 to 100 | CN1CCC2(CCN(c3ccc(S(=O)(=O)N4CCC(Nc5ccc(C(F)(F)F)cn5)CC4)cc3)CC2)C1=O [Example 1.157] |
| 5 to 100 | NC(=O)CN1CCN(c2ccc(S(=O)(=O)N3CCC(Nc4ccc(C(F)(F)F)cn4)CC3)cc2)CC1 [Example 1.122] |
| 5 to 100 | NC(=O)C1CN(c2ccc(S(=O)(=O)N3CCC(Nc4ccc(C(F)(F)F)cn4)CC3)cc2)CCO1 (stereo not shown) [Example 1.202] |
| 5 to 100 | O=S(=O)(c1ccc(-c2ccc3[nH]nc(C(F)(F)F)c3c2)cc1)N1CCC(Nc2ccc(C(F)(F)F)cn2)CC1 [Example 1.087] |
| 5 to 100 | CNC(=O)CC1CCN(c2ccc(S(=O)(=O)N3CCC(Nc4ccc(C(F)(F)F)cn4)CC3)cc2)CC1 [Example 1.135] |
| 5 to 100 | CS(=O)(=O)NCCC1CCN(c2ccc(S(=O)(=O)N3CCC(Nc4ccc(C(F)(F)F)cn4)CC3)cc2)CC1 [Example 1.127] |
| 5 to 100 | O=C1NS(=O)(=O)c2cc(-c3ccc(S(=O)(=O)N4CCC(Nc5ccc(C(F)(F)F)cn5)CC4)cc3)ccc21 [Example 1.062] |
| 5 to 100 | O=C1NC(=O)N2CCN(c3ccc(S(=O)(=O)N4CCC(Nc5ccc(C(F)(F)F)cn5)CC4)cc3)CC12 (stereo not shown) [Example 1.177] |
| 5 to 100 | O=S(=O)(c1ccc(N2CCC[C@H](O)C2)cc1)N1CCC(Nc2ccc(C(F)(F)F)cn2)CC1 [Example 1.198] |
| 100 to 10000 | O=C1Cc2cc(-c3ccc(S(=O)(=O)N4CCC(Nc5ccc(C(F)(F)F)cn5)CC4)cc3)ncc2N1 [Example 1.043] |
| < 5 | Cc1nc2[nH]ccc2cc1-c1ccc(S(=O)(=O)N2CCC(Nc3ccc(C(F)(F)F)cn3)CC2)cc1 [Example 1.024] |
| 100 to 10000 | CS(=O)(=O)N1CCCN(c2ccc(S(=O)(=O)N3CCC(Nc4ccc(C(F)(F)F)cn4)CC3)cc2)CC1 [Example 1.199] |
| 100 to 10000 | O=C1NC[C@@H]2CCN(c3ccc(S(=O)(=O)N4CCC(Nc5ccc(C(F)(F)F)cn5)CC4)cc3)C[C@H]12 (racemic) [Example 1.169] |
| 100 to 10000 | O=S(=O)(c1ccc(-c2ccc3[nH]nnc3c2)cc1)N1CCC(Nc2ccc(C(F)(F)F)cn2)CC1 [Example 1.109] |
| 5 to 100 | O=C1NCCC12CCN(c1ccc(S(=O)(=O)N3CCC(Nc4ccc(C(F)(F)F)cn4)CC3)cc1)CC2 [Example 1.153] |
| < 5 | N#Cc1cn(CCNC(N)=O)c2ncc(-c3ccc(S(=O)(=O)N4CCC(Nc5ccc(C(F)(F)F)cn5)CC4)cc3)cc12 [Example 1.003] |
| 5 to 100 | CC(=O)N1CCCC(c2ccc(S(=O)(=O)N3CCC(Nc4ccc(C(F)(F)F)cn4)CC3)cc2)C1 (stereo not shown) [Example 1.183] |
| 5 to 100 | NC(=O)c1ccc(-c2ccc(S(=O)(=O)N3CCC(Nc4ccc(C(F)(F)F)cn4)CC3)cc2)c2cc[nH]c12 [Example 1.061] |

| IC50 [nM] | Structure (SMILES) |
| --- | --- |
| 100 to 10000 | NC(=O)C1CCN(c2ccc(S(=O)(=O)N3CCC(Nc4ccc(C(F)(F)F)cn4)CC3)cc2)C1 (stereo not shown) [Example 1.195] |
| 100 to 10000 | O=S(=O)(c1ccc(N2CC[C@@H](O)C2)cc1)N1CCC(Nc2ccc(C(F)(F)F)cn2)CC1 [Example 1.186] |
| 5 to 100 | O=S(=O)(c1ccc(-c2ccc3[nH]ncc3c2)cc1)N1CCC(Nc2ccc(C(F)(F)F)cn2)CC1 [Example 1.096] |
| 5 to 100 | NC(=O)N1CCC(c2ccc(S(=O)(=O)N3CCC(Nc4ccc(C(F)(F)F)cn4)CC3)cc2)CC1 [Example 1.216] |
| 5 to 100 | NC(=O)C1(O)CCN(c2ccc(S(=O)(=O)N3CCC(Nc4ccc(C(F)(F)F)cn4)CC3)cc2)CC1 [Example 1.166] |
| < 5 | Nc1nnc2ccc(-c3ccc(S(=O)(=O)N4CCC(Nc5ccc(C(F)(F)F)cn5)CC4)cc3)cn12 [Example 1.016] |
| 5 to 100 | O=C1Cc2cc(-c3ccc(S(=O)(=O)N4CCC(Nc5ccc(C(F)(F)F)cc5)CC4)cc3)ccc2N1 [Example 1.050] |
| 5 to 100 | N=[S@](=O)(c1ccc(-c2ccc3oc(N)nc3c2)cc1)N1CCC(Nc2ccc(C(F)(F)F)cc2)CC1 [Example 1.105] |
| < 5 | N#Cc1n[nH]c2ccc(-c3ccc(S(=O)(=O)N4CCC(Nc5ccc(C(F)(F)F)cn5)CC4)cc3)cc12 [Example 1.055] |
| 5 to 100 | O=S(=O)(c1ccc(N2CCC(Nc3ccccc3)CC2)cc1)N1CCC(Nc2ccc(C(F)(F)F)cn2)CC1 [Example 1.220] |
| 5 to 100 | COc1n[nH]c2ccc(-c3ccc(S(=O)(=O)N4CCC(Nc5ccc(C(F)(F)F)cn5)CC4)cc3)cc12 [Example 1.077] |
| 5 to 100 | N=[S@](=O)(c1ccc(-c2ccc3[nH]cnc3c2)cc1)N1CCC(Nc2ccc(C(F)(F)F)cc2)CC1 [Example 1.104] |
| 5 to 100 | N#Cc1c[nH]c2cc(-c3ccc(S(=O)(=O)N4CCC(Nc5ccc(C(F)(F)F)cn5)CC4)cc3)ccc12 [Example 1.101] |
| 5 to 100 | NC(=O)N1CCC2(CCN(c3ccc(S(=O)(=O)N4CCC(Nc5ccc(C(F)(F)F)cn5)CC4)cc3)C2)C1 (stereo not shown) [Example 1.175] |
| 100 to 10000 | NCCC1CCN(c2ccc(S(=O)(=O)N3CCC(Nc4ccc(C(F)(F)F)cn4)CC3)cc2)CC1 [Example 1.132] |
| 5 to 100 | O=S(=O)(c1ccc(N2CC3(CC(O)C3)C2)cc1)N1CCC(Nc2ccc(C(F)(F)F)cn2)CC1 [Example 1.187] |
| 5 to 100 | O=C1NS(=O)(=O)c2ccc(-c3ccc(S(=O)(=O)N4CCC(Nc5ccc(C(F)(F)F)cn5)CC4)cc3)cc21 [Example 1.063] |
| 100 to 10000 | NC(=O)N[C@H]1CCN(c2ccc(S(=O)(=O)N3CCC(Nc4ccc(C(F)(F)F)cn4)CC3)cc2)C1 [Example 1.190] |
| 100 to 10000 | NC(=O)C1CN(c2ccc(S(=O)(=O)N3CCC(Nc4ccc(C(F)(F)F)cn4)CC3)cc2)C1 [Example 1.196] |
